Assay results as given in ChEMBL document CHEMBL2321863, “Novel Inverse Binding Mode of Indirubin Derivatives Yields Improved Selectivity for DYRK Kinases” (ACS Med Chem Lett, 2013).
pIC50: −log10 of the molar value.

Target: Glycogen synthase kinase 3 beta (Sus scrofa, UniProt B2LUN4)
Assay: Inhibition of porcine brain GSK3beta using YRRAAVPPSPSLSRHSSPHQSpEDEEE as substrate

Glycogen synthase kinase 3 beta, sequence (B2LUN4 whole entry): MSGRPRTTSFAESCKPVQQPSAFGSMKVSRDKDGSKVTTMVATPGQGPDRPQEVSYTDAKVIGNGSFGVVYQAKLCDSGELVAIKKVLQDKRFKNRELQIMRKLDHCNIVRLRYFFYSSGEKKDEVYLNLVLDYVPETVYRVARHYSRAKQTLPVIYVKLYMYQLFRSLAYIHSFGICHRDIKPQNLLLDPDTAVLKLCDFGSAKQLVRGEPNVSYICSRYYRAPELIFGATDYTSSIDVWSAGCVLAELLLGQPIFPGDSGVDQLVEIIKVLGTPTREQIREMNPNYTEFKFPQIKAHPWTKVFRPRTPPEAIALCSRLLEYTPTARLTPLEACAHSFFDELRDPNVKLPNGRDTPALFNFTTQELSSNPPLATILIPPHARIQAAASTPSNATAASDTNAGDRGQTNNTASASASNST

## Cn1c(O)c(-c2[nH]c3ccccc3c2N=O)c2cccc(Br)c21
  pIC50: < 5.00
